Data reported in patent US11806393B2, “Flavivirus peptide sequences, epitopes, and methods and uses thereof” (priority 2017, dated 2023).

Tested on: CD8+ T cells
Assay: IFNγ ELISPOT, ZIKV-infected Ifnar-/- HLA-A*0101 transgenic mice
Type: cell-based, mouse
Conditions: HLA-A*0101 mice; for SFC/10^6 CD8+ T cells, MR766: 7 days after ZIKV MR766; for SFC/10^6 CD8+ T cells, FSS13025: 7 days after ZIKV FSS13025; for immunodominance in IFNγ ELISPOT: immunodominant: >500 SFCs/10^6 CD8+ T cells, shared by both ZIKV strains
Method: Two ZIKV strains, MR766 (Uganda, 1947) and FSS13025 (Cambodia, 2010), were obtained from the World Reference Center for Emerging Viruses and Arboviruses (WRCEVA). The mouse-adapted DENV2 strain S221 is a triple-plaque purified clone derived from DENV2 D2S1038. Both ZIKV and DENV2 were amplified in C6/36 mosquito cells, and viral titers were measured using baby hamster kidney (BHK)-21 cell-based focus forming assay (FFA). For epitope screening, 5-week old mice (female or male) were infected retro-orbitally (R.O.) with either 1×102 FFU of ZIKV FSS13025 or ZIKV MR766, or 2×10^4 FFU of DENV2 S221 in 200 μl 10% FBS/PBS. Seven days after infection, CD8^+ T cells were isolated from splenocytes and used for ELISPOT assay, while the splenocytes were directly used for ICS assay. Additionally, 5-week old mice were inoculated I.P. with 2×10^3 FFU of DENV2 S221 for 4 weeks.
CD8^+ T cells were isolated from splenocytes using magnetic bead positive selection (Miltenyi Biotec, Germany) 7 days after virus infection. 2×10^5 CD8^+ T cells were stimulated with 1×10^5 LPS-blasts loaded with 10 μg of individual peptide in 96-well flat-bottom plates (IMMOBILON™-P; Millipore, Bedford, Mass.) that were coated with anti-IFNγ mAb (clone AN18; Mabtech, Stockholm, Sweden) in triplicate. Concanavalin A (ConA) was used as positive control. After 20 hours of incubation, biotinylated anti-mouse IFNγ mAb (R4-6A2; Mabtech), followed by ABC peroxidase (Vector Laboratories, Burlingame, Calif., USA) and then 3-amino-9-ethylcarbazole (Sigma-Aldrich, St. Louis, Mo., USA) were added into the wells. […] A peptide inducing a magnitude of >500 SFCs/10^6 CD8^+ T cells was considered as an immunodominant peptide.
The following results are with respect to FIG. 9, where IFNγ ELISPOT was performed using CD8+ T cells isolated from Ifnar^−/− HLA-B*0702 transgenic mice (a and b) and Ifnar^−/− HLA-A*0101 transgenic mice (d and e) 7 days after retro-orbital (R.O.) infection with 1×10^2 FFU of ZIKV strain FSS13025 or MR766. Two independent experiments performed in triplicate were averaged and the error bars represent the SEM. The data are expressed as the mean number of spot forming cells (SFC) per 10^6 CD8^+ T cells. The criteria for positivity were net SFC per 10^6 cells of >20, and a stimulation index of >2.0 when compared with the negative control. Dotted lines represent the cutoff value. * Indicates a positive response. All positive peptides were grouped according the corresponding ZIKV protein (c and f); white and black bars are the total IFNγ response of all identified positive peptides from an indicated protein; numbers in parentheses are the number of positive peptides in this protein. ConA denotes Concanavalin A.

| Sequence | SFC/10^6 CD8+ T cells, MR766 [SFC/10^6 CD8+ T cells] | SFC/10^6 CD8+ T cells, FSS13025 [SFC/10^6 CD8+ T cells] | immunodominance in IFNγ ELISPOT |
| --- | --- | --- | --- |
| MTERFQEAI [FSS/MR-NS4A14-22] | 266 | – | – |
| GLDFSDLYY [FSS/MR-E195-203] | 647 | 993 | immunodominant |
| ETDENRAKV [FSS/MR-E159-167] | 516 | 512 | immunodominant |
| MSALEFYSY [FSS/MR-NS4B270-278] | – | 378 | – |
| ELDPPFGDSY [FSS/MR-E377-386] | – | 286 | – |
| HMCDATMSY [FSS/MR-prM40-48] | – | 288 | – |
| DVEAWRDRY [FSS/MR-NS123-31] | 260 | 583 | immunodominant |
| FTDPSSIAA [FSS/MR-NS3272-280] | 286 | – | – |
| VTRRGNAYY [FSS-C125-prM8] | 266 | – | – |
| YLDKQSDTQY [FSS/MR-E81-90] | 258 | 495 | – |
